Measurements as given in patent US5965434A, “Amphipathic PH sensitive compounds and delivery systems for delivering biologically active compounds” (priority 1994, dated 1999).

Assays:
[1] = background; cited from earlier work
[2] = background; cited from earlier work; remark: listed apart in the source
3T3 cells = assay: Transfection of plasmid pBS.RSVLux into 3T3 cells, luciferase activity; assay type: cell-based, mouse; details: Table 13
Method: Liposomes were prepared by mixing chloroform solutions of the different lipids in microcentrifuge tubes with a 1.5 ml and removing the chloroform by vacuum to produce the dried lipid films. Tubes were placed under vacuum overnight to remove solvent traces. The amounts of cationic lipids in all cases were 1.34 mmol/ml with different amounts of other lipids as specified. One ml of sterile 10 mM HEPES buffer, pH 7.8, was added, and the tubes were sealed and vortexed for 1 min at room temperature and sonicated to obtain a clear emulsion.
The following cell lines were used: mouse 3T3 fibroblasts, COS cells (monkey kidney cell line transformed with the SV40 T ag), HeLa (human carcinoma cells), HepG2 (human hepatoma cell), 293 (monkey kidney cell line transformed with the adenovirus E1 gene ) were maintained in Dulbeco's Modified MEM media supplemented with 10% fetal calf serum. All cultures were maintained in a humidified atmosphere of 5% CO2 in air at 37° C. The cells were seeded in a 6-well plate (35 mm culture dishes) or a 12 well-plate (25 mm culture dishes) 24 h before the transfection at 70% confluence. Before transfection, the cells was washed once with Opti-MEM. In case of the 35 mm culture dishes, four μg of plasmid DNA (containing the luciferase or β-galactosidase reporter genes described below) in 0.75 ml of Opti-MEM was mixed with various amounts of liposomes in 0.75 ml of Opti-MEM. In case of the 25 mm culture dishes, one or two μg DNA in 400 μl of Opti-MEM was mixed with 400 μl of liposomes in 400 μl of Opti-MEM. The mixtures were incubated for 30 min at room temperature prior to being added to the cells in the culture dish. […]
The firefly luciferase and E. coli β-galactosidase reporter genes were used to determine the efficiency of DNA transfer quantitatively. […]
For determination of luciferase activity, cells were lysed by the addition of 100 ml for 25 mm plates and 200 μl for 35 mm plates of lysis buffer (0.1% Triton X-100, 0.1M K-phosphate, 1 mM DTT, pH 7.8). 20 μl of the cellular extract were analyzed for luciferase activity. […]

[3] = pK by differential titration; details: 0.5% triton x-100
Method: 4-5 μmoles of compounds 1, 4, 5, 6 or 8 in a chloroform solution were dried in separate 1.5 ml microcentrifuge tubes under a vacuum overnight. The dried compounds were dissolved in […] of a 0.5% water solution of Triton X-100, pH 3.5. A 20 mM NaOH solution was added to each tube using a Dilutor 401 (Gilson Co.) and the pH was monitored using a Beckman .phi. 72 pH meter. The pKa's of the compounds were determined from differential titration curves. The transfections of the 3T3 cells were done with liposome preparations containing Dioleoylphosphatidylcholine as described above.

[4] = Dioleoylphosphatidylcholine content 1:1

Row | Structure (SMILES) | Cytotoxicity [1] | pKa [3] | also measured
1 | CCCCCCCC/C=C\CCCCCCCC(=O)OCC(C[N+](C)(C)C)OC(=O)CCCCCCC/C=C\CCCCCCCC (centres unmarked) [DOTAP, 1,2-Bis(oleoyloxy)-3-(4'-trimethylammonio)propane] | no evidence of reduced cytotoxicity | – | Inhibition of transfection by serum [2]: inhibits transfection to some extent
2 | CCCCCCCCCCCCCCCC(=O)OCC(CNc1ccncc1)OC(=O)CCCCCCCCCCCCCCC (centres unmarked) [Compound 8] | – | 5.3 | Relative Transfection Efficiency (Lipofectin = 1.0) (3T3 cells; [4]): 7.68
3 | CCCCCCCC/C=C\CCCCCCCC(=O)OC[C@H](COC(=O)CCC(=O)OCC[N+](C)(C)C)OC(=O)CCCCCCC/C=C\CCCCCCCC [DOSC, 1,2-dioleoyl-3-succinyl-sn-glycerol choline ester] | no evidence of reduced cytotoxicity | – | –
4 | CCCCCCCC/C=C\CCCCCCCC(=O)OC[C@H](COC(=O)CCC[N+](C)(C)C)OC(=O)CCCCCCC/C=C\CCCCCCCC [DOTB, 1,2-dioleoyl-3-(4'-trimethylammonio)butanoyl-sn-glycerol] | no evidence of reduced cytotoxicity | – | –
5 | CC(C)CCC[C@@H](C)[C@H]1CC[C@H]2[C@@H]3CC=C4C[C@@H](OC(=O)NCCCn5ccnc5)CC[C@]4(C)[C@H]3CC[C@]12C [Compound 6] | – | 6 | Relative Transfection Efficiency (Lipofectin = 1.0) (3T3 cells; [4]): 0.23
6 | CCCCCCCCCCCCCCCC[N+](C)(C)C.[Br-] [CTAB, cetyltrimethylammonium bromide] | significant cytotoxicity | – | –
7 | CCCCCCCCCCCCCCCC(=O)OCC(CSc1nccn1C)OC(=O)CCCCCCCCCCCCCCC (centres unmarked) [Compound 4] | – | < 3.5 | –
8 | CC(C)CCC[C@@H](C)[C@H]1CC[C@H]2[C@@H]3CC=C4C[C@@H](OC(=O)CCC[N+](C)(C)C)CC[C@]4(C)[C@H]3CC[C@]12C [ChoTB, cholesteryl (4'-trimethylammonio)butanoate] | no evidence of reduced cytotoxicity | – | –
9 | CC(C)CCC[C@@H](C)[C@H]1CC[C@H]2[C@@H]3CC=C4C[C@@H](SSCCN)CC[C@]4(C)[C@H]3CC[C@]12C [Compound 5] | – | 6.8 | Relative Transfection Efficiency (Lipofectin = 1.0) (3T3 cells; Dioleoylphosphatidylcholine content 1:2): 0.84
10 | CCCCCCCCCCCCCCCCCCN [Stearylamine] | great cytotoxicity | – | –
